Reference: ChEMBL document CHEMBL1201862, “PubChem BioAssay data set” (2004)
Values belong to the compound of their own block, whether it stands above or below them. The source made the active and inactive calls.

How the values were obtained:
[1] = biological target: Cytochrome P450 2C9 (Homo sapiens, UniProt P11712)
[2] = biological target: Cytochrome P450 2C19 (Homo sapiens, UniProt P33261); experiment: Cytochrome panel assay with activity outcomes. Panel member name: p450-cyp2c19 Compounds with AC50 equal or less than 10 uM are considered active; format: functional
Sequence of Cytochrome P450 2C19 (P33261 whole entry): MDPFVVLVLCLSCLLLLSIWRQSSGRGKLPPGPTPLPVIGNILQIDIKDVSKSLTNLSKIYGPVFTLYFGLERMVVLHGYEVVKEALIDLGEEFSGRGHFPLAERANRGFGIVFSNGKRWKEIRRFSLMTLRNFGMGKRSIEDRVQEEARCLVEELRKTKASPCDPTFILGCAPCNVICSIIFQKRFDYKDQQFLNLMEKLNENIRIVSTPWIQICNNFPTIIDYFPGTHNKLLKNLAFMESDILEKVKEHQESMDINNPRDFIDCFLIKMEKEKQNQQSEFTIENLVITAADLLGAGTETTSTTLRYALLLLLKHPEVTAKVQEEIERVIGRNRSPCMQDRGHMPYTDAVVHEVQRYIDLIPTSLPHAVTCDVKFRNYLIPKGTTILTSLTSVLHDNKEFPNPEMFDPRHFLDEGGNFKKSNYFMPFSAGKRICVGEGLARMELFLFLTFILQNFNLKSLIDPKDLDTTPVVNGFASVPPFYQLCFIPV

[3] = NIH-3T3 fibroblast cytotoxicity, dose response, cytotoxicity control, cell-based, fluorescence, Alamar Blue, secondary assay (AID 2327); format: functional;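 further: NIH-3T3 mouse fibroblasts cultured with fluconazole at 8 µg/mL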
[4] = C. albicans growth with fluconazole, confirmation, fluorescence, retest (AID 2467); format: functional, cell-based
[5] = biological target: Luciferin 4-monooxygenase (Photinus pyralis, UniProt P08659); experiment: firefly luciferase enzyme inhibitors, dose response, biochemical, luminescence (AID 1891)
Sequence of Luciferin 4-monooxygenase (P08659 whole entry): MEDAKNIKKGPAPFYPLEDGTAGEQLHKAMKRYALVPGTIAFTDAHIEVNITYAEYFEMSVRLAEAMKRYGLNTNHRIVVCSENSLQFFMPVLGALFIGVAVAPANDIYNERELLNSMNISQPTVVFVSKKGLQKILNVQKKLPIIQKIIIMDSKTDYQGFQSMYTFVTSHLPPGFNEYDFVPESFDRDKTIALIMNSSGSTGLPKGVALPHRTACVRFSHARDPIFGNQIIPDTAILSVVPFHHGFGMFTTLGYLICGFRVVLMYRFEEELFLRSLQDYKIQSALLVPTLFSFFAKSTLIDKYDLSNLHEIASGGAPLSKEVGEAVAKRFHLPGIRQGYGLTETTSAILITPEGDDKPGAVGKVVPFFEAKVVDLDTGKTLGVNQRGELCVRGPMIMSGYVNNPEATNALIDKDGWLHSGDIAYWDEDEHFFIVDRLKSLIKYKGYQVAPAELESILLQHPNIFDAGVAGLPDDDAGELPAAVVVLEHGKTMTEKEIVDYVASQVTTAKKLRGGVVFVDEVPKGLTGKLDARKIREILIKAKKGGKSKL

[6] = Luminescence Cell-Based Dose Confirmation HTS to Identify Inhibitors of Platelet Dense Granule Release. [Related pubchem assays: 1663 (Primary HTS), 1678 (Summary of Project)]; format: functional
[7] = biological target: Cytochrome P450 3A4 (Homo sapiens, UniProt P08684);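 further: CYP3A4 tested as one member of a cytochrome P450 panel screen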
Sequence of Cytochrome P450 3A4 (P08684 whole entry): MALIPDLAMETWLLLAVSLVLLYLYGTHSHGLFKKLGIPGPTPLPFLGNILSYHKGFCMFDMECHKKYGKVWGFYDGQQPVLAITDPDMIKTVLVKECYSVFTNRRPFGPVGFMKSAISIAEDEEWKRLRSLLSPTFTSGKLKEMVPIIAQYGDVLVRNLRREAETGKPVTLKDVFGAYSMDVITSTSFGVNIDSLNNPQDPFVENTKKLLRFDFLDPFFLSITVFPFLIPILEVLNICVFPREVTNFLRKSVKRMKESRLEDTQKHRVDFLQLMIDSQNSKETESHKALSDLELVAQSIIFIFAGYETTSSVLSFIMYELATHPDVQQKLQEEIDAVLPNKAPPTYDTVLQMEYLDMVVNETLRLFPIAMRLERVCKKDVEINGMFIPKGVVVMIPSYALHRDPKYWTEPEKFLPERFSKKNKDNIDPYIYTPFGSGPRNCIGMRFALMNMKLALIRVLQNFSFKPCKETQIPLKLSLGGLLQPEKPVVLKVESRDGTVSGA

[8] = biological target: T1, Corticotropin-releasing factor receptor 2/Corticotropin-releasing factor-binding protein (Homo sapiens, UniProt P24387+Q13324); experiment: activators of CRF receptor 2 with binding protein – uHTS hits, confirmation (AID 602473); format: functional; conditions: read-out: EC50_Mean
T1 sequence (Q13324 whole entry): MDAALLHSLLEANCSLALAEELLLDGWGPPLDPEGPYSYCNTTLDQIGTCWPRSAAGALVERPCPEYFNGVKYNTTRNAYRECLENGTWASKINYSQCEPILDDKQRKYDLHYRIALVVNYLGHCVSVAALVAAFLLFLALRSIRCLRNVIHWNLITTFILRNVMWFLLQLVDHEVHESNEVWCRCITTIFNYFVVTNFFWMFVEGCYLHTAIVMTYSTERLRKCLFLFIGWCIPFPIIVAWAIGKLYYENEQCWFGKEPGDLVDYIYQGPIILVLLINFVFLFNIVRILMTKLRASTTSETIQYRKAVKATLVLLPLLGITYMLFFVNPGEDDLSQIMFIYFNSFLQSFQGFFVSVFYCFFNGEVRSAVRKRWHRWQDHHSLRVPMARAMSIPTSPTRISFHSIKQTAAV
T1 sequence (P24387 whole entry): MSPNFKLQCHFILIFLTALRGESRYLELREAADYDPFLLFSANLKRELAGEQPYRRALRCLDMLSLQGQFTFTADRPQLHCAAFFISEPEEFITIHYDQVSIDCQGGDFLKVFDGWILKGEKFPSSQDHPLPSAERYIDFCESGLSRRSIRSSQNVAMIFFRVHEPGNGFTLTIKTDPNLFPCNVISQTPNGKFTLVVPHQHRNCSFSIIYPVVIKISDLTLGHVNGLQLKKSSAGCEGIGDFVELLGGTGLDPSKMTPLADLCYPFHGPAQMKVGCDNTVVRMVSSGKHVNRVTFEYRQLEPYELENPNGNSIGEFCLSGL

[9] = biological target: T1, Corticotropin-releasing factor receptor 2/Corticotropin-releasing factor-binding protein; experiment: Dose Response confirmation of uHTS hits for small molecule antagonists of the CRF-binding protein and CRF-R2 receptor complex.; format: functional; conditions: read-out: IC50_Mean
[10] = biological target: T2, Cytochrome P450 1A2 (Homo sapiens, UniProt P05177);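 further: PubChem cytochrome P450 panel assay, CYP1A2 panel member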
T2 sequence (P05177 whole entry): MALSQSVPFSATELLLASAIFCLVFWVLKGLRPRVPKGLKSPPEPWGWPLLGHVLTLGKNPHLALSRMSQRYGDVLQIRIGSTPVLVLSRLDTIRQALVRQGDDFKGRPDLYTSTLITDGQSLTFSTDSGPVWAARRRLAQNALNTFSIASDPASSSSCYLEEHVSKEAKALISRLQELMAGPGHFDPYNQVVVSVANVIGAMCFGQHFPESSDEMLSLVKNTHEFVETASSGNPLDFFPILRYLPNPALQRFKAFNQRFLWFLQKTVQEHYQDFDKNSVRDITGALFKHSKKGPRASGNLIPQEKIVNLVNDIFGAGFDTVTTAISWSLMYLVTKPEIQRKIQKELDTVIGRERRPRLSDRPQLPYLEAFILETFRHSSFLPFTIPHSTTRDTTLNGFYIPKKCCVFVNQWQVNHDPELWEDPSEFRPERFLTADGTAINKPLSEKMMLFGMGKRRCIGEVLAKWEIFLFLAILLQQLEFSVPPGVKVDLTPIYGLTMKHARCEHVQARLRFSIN

[11] = inhibitors of clade B AD8 Env fusion, dose response, cell-based, cherry-pick (AID 652062); format: functional;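 further: luciferase signal from cell-cell fusion driven by HIV-1 clade B AD8 Env; potency is for inhibitors of fusion seen as a drop in luminescence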
[12] = P. falciparum Dd2 growth inhibitors, dose response, SYBR Green, cherry-picked samples (AID 1159567); format: functional, cell-based

Sequence of Cytochrome P450 2C9 (P11712 whole entry): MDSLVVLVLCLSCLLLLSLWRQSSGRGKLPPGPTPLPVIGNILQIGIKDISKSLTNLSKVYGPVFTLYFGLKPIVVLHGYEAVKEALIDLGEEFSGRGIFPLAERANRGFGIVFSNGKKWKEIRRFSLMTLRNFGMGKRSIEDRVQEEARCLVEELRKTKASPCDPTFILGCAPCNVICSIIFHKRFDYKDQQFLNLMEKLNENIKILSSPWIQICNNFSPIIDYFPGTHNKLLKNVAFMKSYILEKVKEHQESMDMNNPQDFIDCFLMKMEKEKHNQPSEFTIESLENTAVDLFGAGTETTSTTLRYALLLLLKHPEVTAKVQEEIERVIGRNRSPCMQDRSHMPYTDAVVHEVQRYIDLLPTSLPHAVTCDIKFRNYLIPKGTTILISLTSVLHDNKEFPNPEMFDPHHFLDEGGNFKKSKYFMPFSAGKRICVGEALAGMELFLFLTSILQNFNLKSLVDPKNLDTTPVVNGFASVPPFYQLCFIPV

- AC50 [1]: inconclusive
- AC50 [2]: inconclusive
SMILES: CN(C)c1nc(C#N)nc(N2CCOCC2)n1

SMILES: O=C(/C=C/c1ccccc1)NC(=S)Nc1ccc(N2CCOCC2)c(Cl)c1
- EC50 [3]: > 160 µM (inactive)
- EC50 [4]: 5.76 µM (active)

SMILES: Cn1nnnc1SCC(=O)NC1CCCc2ccccc21 (centres undefined)
- EC50 [5]: > 112 µM (not active)
- EC50 [6]: > 112 µM (not active)

SMILES: CC(C)Nc1nc(NC(C)(C)C)nc(Oc2ccc(=O)n(-c3ccccc3)n2)n1
- EC50 [5]: > 112 µM (not active)
- EC50 [6]: > 112 µM (not active)
- AC50 [7]: 12.6 µM (inconclusive)
- AC50 [2]: inconclusive

- EC50 [8]: > 53 µM (inactive)
- IC50 [9]: > 47.1 µM (inactive)
SMILES: CCOc1ccc(NC(=O)CCCN2C(=O)C(c3ccccc3)Oc3cccnc32)cc1 (centres undefined)

- EC50 [8]: > 53 µM (inactive)
- IC50 [9]: > 47.1 µM (inactive)
SMILES: Cc1ccc(-c2csc3nnc(SCC(=O)N4CCN(Cc5ccccc5)CC4)n23)cc1

- AC50 [1]: inconclusive
- AC50 [7]: 28.2 µM (inconclusive)
SMILES: Cc1ccccc1C(=O)NC(=S)NCC(=O)c1ccccc1

- EC50 [8]: > 53 µM (inactive)
- IC50 [9]: > 47.1 µM (inactive)
SMILES: COc1ccc(/C=C2\SC(=S)N(CC(=O)NCCO)C2=O)cc1

- EC50 [8]: > 53 µM (inactive)
- IC50 [9]: > 47.1 µM (inactive)
SMILES: O=C(CN1C(=O)NC2(CCCC2)C1=O)c1ccc(Cl)s1

SMILES: COCc1nnc(NC(=O)c2ccc(S(=O)(=O)N3CCCc4ccccc43)cc2)o1
- EC50 [3]: > 150 µM (inconclusive)
- EC50 [4]: 2.96 µM (active)

- AC50 [1]: inconclusive
SMILES: CCOc1ccccc1NC(=O)CN1CCC(NC(=O)c2ccccc2)CC1

SMILES: N#Cc1ccccc1Sc1ccccc1N
- AC50 [10]: 22.4 µM (inconclusive)
- EC50 [8]: > 53 µM (inactive)
- IC50 [9]: > 47.1 µM (inactive)

- EC50 [8]: > 53 µM (inactive)
- IC50 [9]: > 47.1 µM (inactive)
SMILES: CC1CCC(NC(=O)CCN2C(=O)C3CC=CCC3C2=O)CC1 (centres undefined)

SMILES: CCN1C(=O)[C@H]2[C@@H](c3ccc(C(F)(F)F)cc3)N[C@]3(CCCN(Cc4ccccc4)C3=O)[C@H]2C1=O
- AC50 [11]: 0.682 µM (active)

- EC50 [8]: > 53 µM (inactive)
- IC50 [9]: > 47.1 µM (inactive)
SMILES: O=c1cc(Cc2ccc([N+](=O)[O-])cc2)[nH]c(=O)[nH]1

SMILES: Clc1nccnc1N/N=C/c1ccc(Br)cc1
- EC50 [5]: 2.82 µM (active)
- EC50 [6]: 4.81 µM (active)

- AC50 [1]: inconclusive
SMILES: Cc1nc2ccccn2c1C(=O)N/N=C/c1ccccc1[N+](=O)[O-]

- AC50 [10]: 12.6 µM (inconclusive)
- AC50 [1]: inconclusive
- AC50 ([2]; read-out: AC50): 28.2 µM (inconclusive)
SMILES: C/C(CC(=O)Nc1cc(Cl)ccc1Cl)=N\NC(N)=S

SMILES: COC(=O)c1nn(-c2ccccc2)c(Sc2ccc(OC)cc2)c1/C=N/O
- EC50 [5]: > 112 µM (not active)
- EC50 [6]: 28.5 µM (active)

SMILES: COc1ccccc1C#Cc1ccc2c(c1)[C@H]1[C@H](CCN1C(=O)CN1CCOCC1)[C@@H](CO)N2
- AC50 [12]: 5.01 µM (active)

SMILES: COc1ccc(C#Cc2ccc([C@@H]3[C@@H](CO)N4CCCCN(C(=O)Nc5ccccc5F)C[C@@H]34)cc2)cc1
- AC50 [12]: 8.08 µM (active)

SMILES: COc1ccccc1CNC(=O)C[C@H]1C[C@H]2c3cc(NC(=O)Cc4ccncc4)ccc3O[C@H]2[C@H](CO)O1
- AC50 [12]: 5.4 µM (active)

SMILES: N#C[C@@H]1[C@H](c2ccccc2-c2cccc(F)c2)[C@@H](CO)N1C(=O)C1CCCC1
- AC50 [12]: 4.79 µM (active)

SMILES: O=C(c1ccccc1F)N1CC(=O)N2[C@H](C1)[C@H](c1ccc(-c3ccccc3)cc1)[C@@H]2CO
- AC50 [12]: 5.6 µM (active)
